Assay results from patent publication US11999746B2, “Compounds” (GlaxoSmithKline Intellectual Property Development Limited, priority 2014, dated 2024).

How the values were obtained:
[1] = target: T1, recombinant human Lp-PLA2 (Homo sapiens, UniProt Q13093); experiment: (1a) PED6 assay, recombinant human Lp-PLA2 (rhLp-PLA2); assay type: biochemical; details: Examples 1-167 and 413-430 were tested here, one experiment or average of multiple experiments, read-out: rhLp-PLA2 (pIC50) (converted)
T1 sequence (Q13093 22-441): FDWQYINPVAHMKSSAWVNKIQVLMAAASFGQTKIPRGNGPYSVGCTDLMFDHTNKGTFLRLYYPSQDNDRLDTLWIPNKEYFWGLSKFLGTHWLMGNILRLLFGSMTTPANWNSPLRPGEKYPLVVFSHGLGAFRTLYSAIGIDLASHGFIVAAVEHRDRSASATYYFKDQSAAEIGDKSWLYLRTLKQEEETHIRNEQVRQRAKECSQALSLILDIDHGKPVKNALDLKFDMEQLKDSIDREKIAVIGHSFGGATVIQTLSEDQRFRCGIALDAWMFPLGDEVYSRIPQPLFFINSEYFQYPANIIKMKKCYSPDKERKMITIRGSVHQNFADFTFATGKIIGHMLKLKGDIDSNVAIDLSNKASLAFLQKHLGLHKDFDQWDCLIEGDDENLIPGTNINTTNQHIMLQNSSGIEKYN
Procedure, shortened: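 PED6 (2 μM final after 1:1 addition of 4 μM stock) cleavage by rhLp-PLA2 (4 nM working solution) in 50 mM HEPES pH 7.4, 150 mM NaCl, 1 mM CHAPS; compounds preincubated with enzyme 30 minutes, reaction 20 min at room temperature. Fluorescence at ex 480/em 540; pIC50 from curve fit.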

Lp-PLA2 in human plasma = target: T2, Lp-PLA2 in human plasma (Homo sapiens, UniProt Q13093); experiment: (3a) Lp-PLA2 human plasma Thio-PAF assay; assay type: biochemical; details: (3a) Thio-PAF assay, pooled human plasma; Examples 1-265 and 413-430 were tested here; read-out: pIC50 in the Lp-PLA2 human plasma assay (converted)
T2 construct: from tissue; host or cells: pooled human plasma
T2 sequence (Q13093 22-441): T1 sequence (Q13093 22-441)
Procedure, shortened: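 Pooled human plasma preincubated 30 min with serially diluted compound, then given 2-thio-PAF substrate with CPM and NEM in 50 mM HEPES pH 7.4, 150 mM NaCl, 1 mM CHAPS. Reaction quenched with TFA after 2 min; CPM thiol-adduct fluorescence read at ex 380/em 485 after 40 min; pIC50 reported.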

Row | IC50 [1] | IC50 (Lp-PLA2 in human plasma) | Compound
1 | ≤ 0.1 µM | ≤ 10 µM | O=c1nc(OCc2cc(F)cc(F)c2)cc2n1C[C@H]1COCN21 [Example E147, (S)-6-((3,5-difluorobenzyl)oxy)-10,10a-dihydro-1H-oxazolo[3′,4′:3,4]imidazo[1,2-c] pyrimidin-8(3H)-one]
2 | ≤ 0.1 µM | ≤ 10 µM | O=c1nc(OCc2cccc(F)c2)cc2n1C[C@H]1COCN21 [Example E148, (S)-6-((3-fluorobenzyl)oxy)-10,10a-dihydro-1H-oxazolo[3′,4′:3,4]imidazo[1,2-c]pyrimidin-8(3H)-one]
3 | ≤ 0.001 µM | ≤ 0.1 µM | Cc1ccc(Oc2c(F)cc(COc3cc4n(c(=O)n3)C[C@H]3COCN43)cc2F)cn1 [Example E149, (S)-6-((3,5-difluoro-4-((6-methylpyridin-3-yl)oxy)benzyl)oxy)-10,10a-dihydro-1H-oxazolo[3′,4′:3,4]imidazo[1,2-c]pyrimidin-8(3H)-one]
4 | ≤ 0.1 µM | ≤ 0.1 µM | CCCn1cc(Oc2c(F)cc(COc3cc4n(c(=O)n3)C[C@H]3COCN43)cc2F)cn1 [Example E150, (S)-6-((3,5-difluoro-4-((1-propyl-1H-pyrazol-4-yl)oxy)benzyl)oxy)-10,10a-dihydro-1H-oxazolo[3′,4′:3,4]imidazo[1,2-c]pyrimidin-8(3H)-one]
5 | ≤ 0.001 µM | ≤ 0.1 µM | O=c1nc(OCc2cc(F)c(Oc3cnn(C(F)(F)F)c3)c(F)c2)cc2n1C[C@H]1COCN21 [Example E151, (S)-6-((3,5-difluoro-4-((1-(trifluoromethyl)-1H-pyrazol-4-yl)oxy)benzyl)oxy)-10,10a-dihydro-1H-oxazolo[3′,4′:3,4]imidazo[1,2-c]pyrimidin-8(3H)-one]
6 | ≤ 0.1 µM | ≤ 0.1 µM | Cc1ncc(Oc2c(F)cc(COc3cc4n(c(=O)n3)C[C@H]3COCN43)cc2F)cn1 [Example E152, (S)-6-((3,5-difluoro-4-((2-methylpyrimidin-5-yl)oxy)benzyl)oxy)-10,10a-dihydro-1H-oxazolo[3′,4′:3,4]imidazo[1,2-c]pyrimidin-8(3H)-one]
7 | ≤ 0.1 µM | ≤ 10 µM | O=c1nc(OCc2cc(F)c(F)c(F)c2)cc2n1C[C@@H]1COCN21 [Example E153, (R)-6-((3,4,5-trifluorobenzyl)oxy)-10,10a-dihydro-1H-oxazolo[3′,4′:3,4]imidazo[1,2-c] pyrimidin-8(3H)-one]
8 | ≤ 0.001 µM | ≤ 0.1 µM | O=c1nc(OCc2cc(F)c(Oc3cnn(C(F)(F)F)c3)c(F)c2)cc2n1C[C@@H]1COCN21 [Example E154, (R)-6-((3,5-difluoro-4-((1-(trifluoromethyl)-1H-pyrazol-4-yl)oxy)benzyl)oxy)-10,10a-dihydro-1H-oxazolo[3′,4′:3,4]imidazo[1,2-c]pyrimidin-8(3H)-one]
9 | ≤ 0.1 µM | ≤ 10 µM | Cc1cc(Oc2c(F)cc(COc3cc4n(c(=O)n3)C[C@@H]3COCN43)cc2F)ccn1 [Example E155, (R)-6-((3,5-difluoro-4-((2-methylpyridin-4-yl)oxy)benzyl)oxy)-10,10a-dihydro-1H-oxazolo[3′,4′:3,4]imidazo[1,2-c]pyrimidin-8(3H)-one]
10 | ≤ 0.1 µM | ≤ 10 µM | CCCn1cc(Oc2c(F)cc(COc3cc4n(c(=O)n3)C[C@@H]3COCN43)cc2F)cn1 [Example E156, (R)-6-((3,5-difluoro-4-((1-propyl-1H-pyrazol-4-yl)oxy)benzyl)oxy)-10,10a-dihydro-1H-oxazolo[3′,4′:3,4]imidazo[1,2-c]pyrimidin-8(3H)-one]
11 | ≤ 0.1 µM | ≤ 10 µM | Cc1ccc(Oc2c(F)cc(COc3cc4n(c(=O)n3)C[C@@H]3COCN43)cc2F)cn1 [Example E157, (R)-6-((3,5-difluoro-4-((6-methylpyridin-3-yl)oxy)benzyl)oxy)-10,10a-dihydro-1H-oxazolo[3′,4′:3,4]imidazo[1,2-c]pyrimidin-8(3H)-one]

The remaining lines, values behind:

Row | Compound | IC50 [1] | IC50 (Lp-PLA2 in human plasma)
12 | O=c1nc(OCc2cc(F)c(Oc3ccnc(C(F)(F)F)c3)c(F)c2)cc2n1C[C@@H]1CCOCN21 [Example E134, (S)-3-((3,5-difluoro-4-((2-(trifluoromethyl)pyridin-4-yl)oxy)benzyl)oxy)-8,9,9a,10-tetrahydropyrimido[6′,1′:2,3]imidazo[1,5-c][1,3]oxazin-1(6H)-one] | ≤ 0.001 µM | ≤ 0.1 µM
13 | O=c1nc(OCc2cc(F)c(Oc3ccnc(C(F)(F)F)c3)c(F)c2)cc2n1C[C@H]1CCOCN21 [Example E135, (R)-3-((3,5-difluoro-4-((2-(trifluoromethyl)pyridin-4-yl)oxy)benzyl)oxy)-8,9,9a,10-tetrahydropyrimido[6′,1′:2,3]imidazo[1,5-c][1,3]oxazin-1(6H)-one] | ≤ 0.001 µM | ≤ 0.1 µM
14 | Cn1cc(Oc2c(F)cc(COc3cc4n(c(=O)n3)C[C@@H]3CCOCN43)cc2F)cn1 [Example E136, (S)-3-((3,5-difluoro-4-((1-methyl-1H-pyrazol-4-yl)oxy)benzyl)oxy)-8,9,9a,10-tetrahydropyrimdo[6′,1′:2,3]imidazo[1,5-c][1,3]oxazin-1(6H)-one] | ≤ 0.1 µM | ≤ 10 µM
15 | Cn1cc(Oc2c(F)cc(COc3cc4n(c(=O)n3)C[C@H]3CCOCN43)cc2F)cn1 [Example E137, (R)-3-((3,5-difluoro-4-((1-methyl-1H-pyrazol-4-yl)oxy)benzyl)oxy)-8,9,9a,10-tetrahydropyrimido[6′,1′:2,3]imidazo[1,5-c][1,3]oxazin-1(6H)-one] | ≤ 0.1 µM | ≤ 10 µM
16 | O=c1nc(OCc2cccc(F)c2)cc2n1C[C@@H]1CCOCN21 [Example E138, (S)-3-((3-fluorobenzyl)oxy)-8,9,9a,10-tetrahydropyrimido[6′,1′:2,3]imidazo[1,5-c][1,3] oxazin-1(6H)-one] | ≤ 0.1 µM | ≤ 10 µM
17 | O=c1nc(OCc2cc(F)c(F)c(F)c2)cc2n1C[C@@H]1CCOCN21 [Example E139, (S)-3-((3,4,5-trifluorobenzyl)oxy)-8,9,9a,10-tetrahydropyrimido[6′,1′:2,3]imidazo[1,5-c][1,3] oxazin-1(6H)-one] | ≤ 0.1 µM | ≤ 0.1 µM
18 | O=c1nc(OCc2cc(F)c(OC3(CCF)CC3)c(F)c2)cc2n1C[C@@H]1CCOCN21 [Example E140, (S)-3-((3,5-difluoro-4-(1-(2-fluoroethyl)cyclopropoxy)benzyl)oxy)-8,9,9a,10-tetrahydropyrimido[6′,1′:2,3]imidazo[1,5-c][1,3]oxazin-1(6H)-one] | ≤ 0.1 µM | ≤ 10 µM
19 | O=c1nc(OCc2cc(F)c(Oc3ccnc(C(F)(F)F)c3)c(F)c2)cc2n1C[C@H]1COCN21 [Example E141, (S)-6-((3,5-difluoro-4-((2-(trifluoromethyl)pyridin-4-yl)oxy)benzyl)oxy)-10,10a-dihydro-1H-oxazolo[3′,4′:3,4]imidazo[1,2-c]pyrimidin-8(3H)-one] | ≤ 0.001 µM | ≤ 0.1 µM
20 | O=c1nc(OCc2cc(F)c(Oc3ccnc(C(F)(F)F)c3)c(F)c2)cc2n1C[C@@H]1COCN21 [Example E142, (R)-6-((3,5-difluoro-4-((2-(trifluoromethyl)pyridin-4-yl)oxy)benzyl)oxy)-10,10a-dihydro-1H-oxazolo[3′,4′:3,4]imidazo[1,2-c]pyrimidin-8(3H)-one] | ≤ 0.001 µM | ≤ 0.1 µM
21 | Cn1cc(Oc2c(F)cc(COc3cc4n(c(=O)n3)C[C@H]3COCN43)cc2F)cn1 [Example E143, (S)-6-((3,5-difluoro-4-((1-methyl-1H-pyrazol-4-yl)oxy)benzyl)oxy)-10,10a-dihydro-1H-oxazolo[3′,4′:3,4]imidazo[1,2-c]pyrimidin-8(3H)-one] | ≤ 0.1 µM | ≤ 10 µM
22 | Cn1cc(Oc2c(F)cc(COc3cc4n(c(=O)n3)C[C@@H]3COCN43)cc2F)cn1 [Example E144, (R)-6-((3,5-difluoro-4-((1-methyl-1H-pyrazol-4-yl)oxy)benzyl)oxy)-10,10a-dihydro-1H-oxazolo[3′,4′:3,4]imidazo[1,2-c]pyrimidin-8(3H)-one] | ≤ 0.1 µM | ≤ 10 µM
23 | O=c1nc(OCc2ccc(Cl)c(F)c2)cc2n1C[C@H]1COCN21 [Example E145, (S)-6-((4-chloro-3-fluorobenzyl)oxy)-10,10a-dihydro-1H-oxazolo[3′,4′:3,4]imidazo[1,2-c] pyrimidin-8(3H)-one] | ≤ 0.1 µM | ≤ 10 µM
24 | O=c1nc(OCc2cc(F)c(F)c(F)c2)cc2n1C[C@H]1COCN21 [Example E146, (S)-6-((3,4,5-trifluorobenzyl)oxy)-10,10a-dihydro-1H-oxazolo[3′,4′:3,4]imidazo[1,2-c] pyrimidin-8(3H)-one] | ≤ 0.1 µM | ≤ 0.1 µM
